# Results from US12378250B2, “Tricyclic compound as IRAK4 inhibitor” (KOREA RESEARCH INSTITUTE OF CHEMICAL TECHNOLOGY, priority 2018, dated 2025).
# pIC50: −log10 of the molar value.
# Legend:
# [1] = tested on: ISG promoter, THP1-Lucia™ ISG cell line; experiment: ISG promoter inhibition, THP1-Lucia ISG cell line; type: cell-based; details: 1 μg/ml Poly(dA:dT)/LyoVec, 24 hours, read-out: ISG, % inhibition degree
# Procedure: (§1) A THP1-Lucia™ NF-κB cell line (Invivogen) was used in an NF-κB inhibition experiment, and a THP1-Lucia™ ISG cell line was used in an ISG inhibition experiment. In the NF-κB inhibition experiment, cells were planted at a density of 1×10^4 cells/well in a 96-well plate, and in the ISG inhibition experiment, cells were planted at a density of 2×10^4 cells/well in a 96-well plate. The cells were treated with a compound diluted to 4-fold of a final concentration, and totally cultured for 30 minutes. NF-κB was treated with 100 ng/ml lipopolysaccharide (LPS), ISG was treated with a stimulator of 1 μg/ml Poly(dA:dT)/LyoVec, and NF-κB and ISG were cultured for 24 hours. 10 μl of a cell supernatant was taken and transferred to a 96-well plate. 50 μl of a Quanti-luc solution was aliquoted using an automatic aliquoter of a measurer (Envision Multilabel Plate Reader, Perkin Elmer, Inc.), and light emission signals were measured.
# [2] = tested on: NF-κB promoter, THP1-Lucia™ NF-κB cell line; experiment: NF-κB promoter inhibition, THP1-Lucia NF-κB cell line; type: cell-based; details: 100 ng/ml LPS, 24 hours, read-out: NF-κB, % inhibition degree
# Procedure: as §1
# [3] = tested on: TNF-α secretion, peripheral blood mononuclear cells (PBMCs); experiment: Suppression of TNF-α secretion in LPS-treated PBMCs (ELISA); type: cell-based; details: PBMC, 100 ng/ml LPS, 24 hours, read-out: TNF-α, % inhibition degree
# Procedure: (§2) Peripheral blood mononuclear cells (PBMCs) isolated from whole blood were distributed in a 96-well plate. TNF-α was aliquoted at a density of 1×10^5 cells/well, IFN-α was aliquoted at a density of 2×10^5 cells/well, and TNF-α and IFN-α were treated with a compound diluted to 4-fold of a final concentration and totally cultured for 30 minutes. TNF-α was treated with 100 ng/ml lipopolysaccharide (LPS), IFN-α was treated with 500 nM ODN2216 (CpGTLR9 stimulator), and TNF-α and IFN-α were further cultured for 24 hours and 72 hours, respectively. An enzyme-linked immunosorbent assay (ELISA) was performed on TNF-α and IFN-α using an ELISA kit manufactured by BD Biosciences and an ELISA kit manufactured by PBL Assay Science, Inc., respectively. A cell supernatant and a standard drug were put into the ELISA plates and reacted for 2 hours. The plates were washed and a measurement antibody and streptavidin-HRP were sequentially added thereto. After the plates were washed, a TMB substrate was added thereto and reacted in a dark place. The reaction was stopped by adding a stop solution thereto, and the absorbance at 450 nm and 570 nm was measured using an absorber (OPTIMax tunable microplate reader, molecular devices). The experimental results are shown in [Table 2].
# [4] = target: T1, IRAK4 enzyme (Homo sapiens, UniProt Q9NWZ3); experiment: IRAK4 enzyme inhibition degree (bead-based kinase assay, peptide substrate BMKC-2, 100 μM ATP); type: biochemical; details: for inhibition at 1 µM: compound 1 μM
# T1 sequence (Q9NWZ3 1-460): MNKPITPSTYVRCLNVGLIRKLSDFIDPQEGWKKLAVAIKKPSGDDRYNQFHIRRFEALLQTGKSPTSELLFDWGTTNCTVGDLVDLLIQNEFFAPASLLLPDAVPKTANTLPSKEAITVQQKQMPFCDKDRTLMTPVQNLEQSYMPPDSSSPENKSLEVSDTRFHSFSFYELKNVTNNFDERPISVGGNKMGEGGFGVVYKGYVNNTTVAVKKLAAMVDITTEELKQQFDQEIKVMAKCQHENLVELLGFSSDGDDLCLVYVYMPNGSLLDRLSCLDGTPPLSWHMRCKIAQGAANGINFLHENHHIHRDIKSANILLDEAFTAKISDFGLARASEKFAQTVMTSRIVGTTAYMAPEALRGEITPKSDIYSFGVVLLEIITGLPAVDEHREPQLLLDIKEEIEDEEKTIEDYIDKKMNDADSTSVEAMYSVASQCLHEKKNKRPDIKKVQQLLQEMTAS
# Procedure: 2.5 μl of a compound diluted to 4-fold of a final concentration was put into a 384-well white plate (low volume). 2.5 μl of 0.4 ng/μl IRAK4 enzyme was added thereto, and the resulting mixture was totally reacted for 10 minutes. 5 μl of a mixed liquid of a 6 μM peptide substrate (BMKC-2) and 100 μM ATP was added thereto, the resulting mixture was reacted at room temperature for 60 minutes, then 2.5 μl of 10 mM EDTA was added thereto, and the resulting mixture was reacted again for 10 minutes. 40 nM anti-phospho Thr antibody was aliquoted to 2.5 μl each, 5 μl of a mixed solution of a 160 μl/ml acceptor bead and a donor bead was added thereto, and then the resulting mixture was reacted at room temperature for 60 minutes. Fluorescence signals were measured using a bead experimental apparatus (Fusion alpha-FP Microplate Reader, Perkin Elmer Inc.).
# From the detected signal, an activity inhibition rate [% inhibition degree=(the average value of a compound−the average value of a negative control)/(the average value of a positive control−the average value of a negative control)×100] was calculated, and is shown in [Table 1]. Further, a % inhibition degree of the compound at each concentration was obtained, and then a 50% inhibition concentration (IC50 value) was analyzed by a non-linear regression analysis.
# [5] = tested on: IFN-α secretion, peripheral blood mononuclear cells (PBMCs); experiment: Suppression of IFN-α secretion in ODN2216-treated PBMCs (ELISA); type: cell-based; details: PBMC, 500 nM ODN2216, 72 hours, read-out: IFN-α, % inhibition degree
# Procedure: as §2
Structure (SMILES),pIC50 [4],inhibition at 1 µM [4],inhibition at 0.1 µM [1],inhibition at 1 µM [1],inhibition at 0.1 µM [2],inhibition at 1 µM [2],inhibition at 0.1 µM [3],inhibition at 1 µM [3],inhibition at 0.1 µM [5],inhibition at 1 µM [5]
"CN(C)CCOc1cncc(-c2ccc3[nH]c4ncnc(N[C@H]5CC[C@H](N6CCOCC6)CC5)c4c3c2)c1 [Compound 6aag, 6-(5-(2-(dimethylamino)ethoxy)pyridin-3-yl)-N-(trans-4-morpholinocyclohexyl)-9H-pyrimido[4,5-b]indole-4-amine]",7.51,82%,20%,52%,12%,37%,16.7%,51.4%,6.4%,89.5%
"Cn1cc(-c2ccc3[nH]c4ncnc(N[C@H]5CC[C@H](N6CCOCC6)CC5)c4c3c2)cn1 [Compound 6aaa, 6-(1-methyl-1H-pyrazol-4-yl)-N-(trans-4-morpholinocyclohexyl)-9H-pyrimido[4,5-b]indole-4-amine]",7.55,100%,17%,55%,23%,71%,10.5%,42%,20%,21%
"O=[N+]([O-])c1cccc(-c2ccc3[nH]c4ncnc(N[C@H]5CC[C@H](N6CCOCC6)CC5)c4c3c2)c1 [Compound 6aai, N-(trans-4-morpholinocyclohexyl)-6-(3-nitrophenyl)-9H-pyrimido[4,5-b]indole-4-amine]",7.17,98%,9%,41%,6%,36%,13%,62%,32%,87%
"c1cc(-c2ccc3[nH]c4ncnc(Nc5ccc(N6CCNCC6)cc5)c4c3c2)ccn1 [Compound 6agba, N-(4-(piperazin-1-yl)phenyl)-6-(pyridin-4-yl)-9H-pyrimido[4,5-b]indole-4-amine]",5.93,42%,6%,8%,< 1%,6%,26%,87%,56%,74%
"c1cc(-c2ccc3c(c2)[nH]c2ncnc(N[C@H]4CC[C@H](N5CCOCC5)CC4)c23)ccn1 [Compound 6caa, N-(trans-4-morpholinocyclohexyl)-7-(pyridin-4-yl)-9H-pyrimido[4,5-b]indole-4-amine]",5.87,50%,1%,10%,5%,10%,5%,40%,40%,60%
"Cn1cc(-c2ccc3[nH]c4ncnc(Nc5ccc(N6CCNCC6)cc5)c4c3c2)cn1 [Compound 6agaa, 6-(1-methyl-1H-pyrazol-4-yl)-N-(4-(piperazin-1-yl)phenyl)-9H-pyrimido[4,5-b]indole-4-amine]",5.94,36%,7%,16%,< 1%,24%,17%,27%,39%,65%

# Now those with a higher pIC50 [4], led by results:
pIC50 [4],inhibition at 1 µM [4],Structure (SMILES),inhibition at 0.1 µM [1],inhibition at 1 µM [1],inhibition at 0.1 µM [2],inhibition at 1 µM [2],inhibition at 0.1 µM [3],inhibition at 1 µM [3],inhibition at 0.1 µM [5],inhibition at 1 µM [5]
7.74,100%,"c1cc(-c2ccc3[nH]c4ncnc(N[C@H]5CC[C@H](N6CCOCC6)CC5)c4c3c2)ccn1 [Compound 6aab, N-(trans-4-morpholinocyclohexyl)-6-(pyridin-4-yl)-9H-pyrimido[4,5-b]indole-4-amine]",11%,54%,8%,61%,44%,114%,31%,94%
8.14,100%,"COc1cncc(-c2ccc3[nH]c4nccc(N[C@H]5CC[C@H](N6CCOCC6)CC5)c4c3c2)c1 [Compound 17b, 6-(5-methoxypyridin-3-yl)-N-(trans-4-morpholinocyclohexyl)-9H-pyrimido[2,3-b]indole-4-amine]",4%,80%,14%,62%,12%,63%,76%,110%
8.70,100%,"Oc1cncc(-c2ccc3[nH]c4ncnc(N[C@H]5CC[C@H](N6CCOCC6)CC5)c4c3c2)c1 [Compound 6aae, 5-(4-((trans-4-morpholinocyclohexyl)amino)-9H-pyrimido[4,5-b]indol-6-yl)pyridine-3-ol]",4%,29%,< 1%,40%,12%,53%,48%,92%
8.40,83%,"CN(C)[C@H]1CC[C@H](Nc2ncnc3[nH]c4ccc(-c5cncc(F)c5)cc4c23)CC1 [Compound 6aba, trans-N1-(6-(5-fluoropyridin-3-yl)-9H-pyrimido[4,5-b]indol-4-yl)-N4,N4-dimethylcyclohexane-1,4-diamine]",33%,83%,40%,87%,39.1%,73.3%,3.4%,81.3%
7.90,100%,"c1ncc(-c2ccc3[nH]c4ncnc(N[C@H]5CC[C@H](N6CCOCC6)CC5)c4c3c2)cn1 [Compound 6aac, N-(trans-4-morpholinocyclohexyl)-6-(pyrimidin-5-yl)-9H-pyrimido[4,5-b]indole-4-amine]",7%,45%,17%,64%,24%,86%,21%,84%
